Active and inactive are the calls of the source. Unless noted, the rule behind the calls is not given here.
Assays:
[1] = nonselective inhibitors of cellular cAMP signaling, dose response, counter-screen for MC4R biased antagonist project, cell-based, TR-FRET cAMP detection (AID 602305); type: functional;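 also: U2OS cells stimulated with forskolin near its EC80 as the cAMP inducer; potency is for inhibition of forskolin-stimulated cAMP signaling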
Melanocortin receptor 4 = Melanocortin receptor 4 (Homo sapiens, UniProt P32245); experiment: MC4R antagonist potency on cAMP, dose response, cell-based, TR-FRET, biased antagonists (AID 602298); type: functional;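 also: antagonist potency against agonist-stimulated cAMP production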
Prothrombin = Prothrombin (Bos taurus, UniProt P00735); experiment: thrombin inhibition, dose response, biochemical, fluorescence polarization, uHTS hits (AID 602369); type: functional
[2] = target: 72 kDa type IV collagenase (Homo sapiens, UniProt P08253); experiment: Dose Response validation of uHTS RPN11 inhibitor hits using a MMP-2 Fluorescence assay.; type: functional
[3] = target: 26S proteasome non-ATPase regulatory subunit 14 (Homo sapiens, UniProt O00487); experiment: inhibition of proteasome subunit RPN11 – biochemical, fluorescence polarization, uHTS hits, confirmation (AID 602368); type: functional
HEK293 [4] = experiment: SAR Analysis of small molecule inhibitors of both B-cell and T-cell specific antigen receptor-induced NF-kB activation in a HEK-293T cell line using a luminescence assay. [Related pubchem assays (depositor defined):AID435003, AID435022, AID465, AID489019, AID489029]; type: functional, cell-based; settings: Homo sapiens
HEK293 [5] = experiment: cytotoxicity in HEK293T NF-kB-Luc cells, SAR follow-up, cytotoxicity control for NF-kB activator project, cell-based, resazurin fluorescence (AID 493251); type: functional; settings: Homo sapiens
Jurkat = experiment: SAR Analysis of small molecule inhibitors of both B-cell and T-cell specific antigen receptor-induced NF-kB activation in a Jurkat cell line using a luminescence assay. [Related pubchem assays (depositor defined):AID435003, AID435022, AID465, AID489029]; type: functional, cell-based; settings: Homo sapiens
[6] = cytotoxicity toward NIH3T3 fibroblasts, dose response, counter-screen, cell-based, ATP luminescence, mouse fibroblasts (AID 2010); type: functional;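 also: cells exposed to compound for about 90 hours before reading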
[7] = target: T1, V-type proton ATPase subunit c' (Saccharomyces cerevisiae S288c, UniProt P32842); experiment: Dose Response of Small Molecules that Regulate V-ATPase Proton Transport in Yeast using pHLuorin, Cherry Pick 2.; type: functional; settings: read-out: EC50_MICROM
T1 sequence (P32842 whole entry): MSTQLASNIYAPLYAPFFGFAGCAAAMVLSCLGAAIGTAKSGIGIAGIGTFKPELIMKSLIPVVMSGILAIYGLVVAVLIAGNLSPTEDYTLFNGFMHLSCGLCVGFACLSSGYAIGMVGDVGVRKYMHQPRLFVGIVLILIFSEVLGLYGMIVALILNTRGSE

[8] = target: T1, V-type proton ATPase subunit c'; experiment: Dose Response with BCECF Assay for V-ATPase inhibitors that increase vacuolar pH, Powder Set 1.; type: functional; settings: read-out: EC50_MICROM
[9] = target: T1, V-type proton ATPase subunit c'; experiment: Dose Response of Small Molecules that Regulate V-ATPase Proton Transport in Yeast using pHLuorin, Powder Set1.; type: functional; settings: read-out: EC50_MICROM
[10] = inhibitors of intracellular T. cruzi replication, confirmation, NIH3T3 host cells, beta-gal luminescence (AID 2044); type: functional, cell-based;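 also: intracellular parasites grown in NIH/3T3 mouse fibroblasts as host cells; luminescent beta-galactosidase reporter signal from transgenic T. cruzi replicating inside host cells; inhibitors lower the luminescence signal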
Candida albicans [11] = experiment: reversal of fluconazole resistance in C. albicans, dose response, CaCi-2 strain, Alamar Blue, dry powder, set 3 (AID 488907); type: functional, organism-based
Candida albicans [12] = experiment: growth inhibition of azole-resistant C. albicans, dose response, CaCi-8 strain, Alamar Blue, dry powder, set 3 (AID 488905); type: functional, organism-based
[13] = target: Melanin-concentrating hormone receptor 1 (Homo sapiens, UniProt Q99705); experiment: Late-stage fluorescence-based counterscreen for antagonists of the G-protein coupled receptor 7 (GPR7): cell-based dose response assay to identify antagonists of the melanin-concentrating hormone receptor 1 (MCHR1) Set 6.; type: functional
[14] = target: T2, Sentrin-specific protease 6 (Homo sapiens, UniProt Q9GZR1); experiment: SENP6 protease inhibitors, SAR follow-up, biochemical, luminescence, set 2 (AID 588598); type: functional
T2 sequence (Q9GZR1 whole entry): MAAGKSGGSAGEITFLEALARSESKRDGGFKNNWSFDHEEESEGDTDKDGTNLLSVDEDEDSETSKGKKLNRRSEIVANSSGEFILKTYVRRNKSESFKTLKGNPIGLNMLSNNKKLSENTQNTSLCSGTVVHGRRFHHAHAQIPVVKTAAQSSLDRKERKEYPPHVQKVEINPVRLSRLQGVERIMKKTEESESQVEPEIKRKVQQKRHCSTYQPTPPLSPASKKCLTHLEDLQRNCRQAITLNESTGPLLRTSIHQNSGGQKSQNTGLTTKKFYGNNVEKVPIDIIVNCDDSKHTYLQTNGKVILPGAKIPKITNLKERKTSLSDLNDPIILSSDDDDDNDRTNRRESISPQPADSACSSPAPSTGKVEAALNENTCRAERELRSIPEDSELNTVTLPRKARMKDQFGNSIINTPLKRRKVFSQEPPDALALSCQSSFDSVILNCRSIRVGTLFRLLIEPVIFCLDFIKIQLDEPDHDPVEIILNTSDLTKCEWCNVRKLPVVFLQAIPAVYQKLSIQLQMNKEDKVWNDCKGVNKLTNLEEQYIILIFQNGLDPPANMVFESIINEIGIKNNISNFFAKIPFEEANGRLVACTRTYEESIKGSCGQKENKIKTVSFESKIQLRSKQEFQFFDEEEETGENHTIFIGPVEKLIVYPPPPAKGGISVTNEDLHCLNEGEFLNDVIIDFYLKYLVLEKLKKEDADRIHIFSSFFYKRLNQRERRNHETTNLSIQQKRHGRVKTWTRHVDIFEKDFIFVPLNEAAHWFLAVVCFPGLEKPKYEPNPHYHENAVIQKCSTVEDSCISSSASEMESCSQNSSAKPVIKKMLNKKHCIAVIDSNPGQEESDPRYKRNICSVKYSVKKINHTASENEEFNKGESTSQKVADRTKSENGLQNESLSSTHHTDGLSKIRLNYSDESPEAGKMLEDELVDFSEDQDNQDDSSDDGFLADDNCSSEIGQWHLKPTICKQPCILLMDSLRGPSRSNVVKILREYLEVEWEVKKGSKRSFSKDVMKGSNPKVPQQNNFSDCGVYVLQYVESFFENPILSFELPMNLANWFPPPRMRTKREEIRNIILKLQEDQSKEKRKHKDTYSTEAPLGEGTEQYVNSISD

Caspase-3 = target: T3, Caspase-3 (Homo sapiens, UniProt P42574); experiment: caspase-3 inhibitors as off-family protease, SAR follow-up, selectivity assay for SENP protease inhibitor project, biochemical, luminescence, set 2 (AID 588599); type: functional
T3 sequence (P42574 whole entry): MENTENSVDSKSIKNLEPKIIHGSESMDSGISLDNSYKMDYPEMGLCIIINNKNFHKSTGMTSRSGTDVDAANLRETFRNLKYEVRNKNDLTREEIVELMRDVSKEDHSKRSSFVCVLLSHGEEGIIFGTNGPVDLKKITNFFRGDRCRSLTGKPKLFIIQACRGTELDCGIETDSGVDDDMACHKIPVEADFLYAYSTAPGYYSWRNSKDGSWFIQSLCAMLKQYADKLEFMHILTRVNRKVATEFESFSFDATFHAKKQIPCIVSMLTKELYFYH

[15] = target: T4, Sentrin-specific protease 8 (Homo sapiens, UniProt Q96LD8); experiment: SENP8 protease inhibitors, SAR follow-up, biochemical, luminescence, set 2 (AID 588601); type: functional
T4 sequence (Q96LD8 whole entry): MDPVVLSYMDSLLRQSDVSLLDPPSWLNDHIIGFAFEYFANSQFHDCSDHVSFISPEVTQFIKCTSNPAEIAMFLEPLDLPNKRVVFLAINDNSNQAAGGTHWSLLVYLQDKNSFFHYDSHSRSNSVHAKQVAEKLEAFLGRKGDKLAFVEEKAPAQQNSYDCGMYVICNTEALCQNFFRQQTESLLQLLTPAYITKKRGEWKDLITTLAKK

[16] = target: T5, Sentrin-specific protease 7 (Homo sapiens, UniProt Q9BQF6); experiment: SENP7 protease inhibitors, SAR follow-up, biochemical, luminescence, set 2 (AID 588600); type: functional
T5 sequence (Q9BQF6 whole entry): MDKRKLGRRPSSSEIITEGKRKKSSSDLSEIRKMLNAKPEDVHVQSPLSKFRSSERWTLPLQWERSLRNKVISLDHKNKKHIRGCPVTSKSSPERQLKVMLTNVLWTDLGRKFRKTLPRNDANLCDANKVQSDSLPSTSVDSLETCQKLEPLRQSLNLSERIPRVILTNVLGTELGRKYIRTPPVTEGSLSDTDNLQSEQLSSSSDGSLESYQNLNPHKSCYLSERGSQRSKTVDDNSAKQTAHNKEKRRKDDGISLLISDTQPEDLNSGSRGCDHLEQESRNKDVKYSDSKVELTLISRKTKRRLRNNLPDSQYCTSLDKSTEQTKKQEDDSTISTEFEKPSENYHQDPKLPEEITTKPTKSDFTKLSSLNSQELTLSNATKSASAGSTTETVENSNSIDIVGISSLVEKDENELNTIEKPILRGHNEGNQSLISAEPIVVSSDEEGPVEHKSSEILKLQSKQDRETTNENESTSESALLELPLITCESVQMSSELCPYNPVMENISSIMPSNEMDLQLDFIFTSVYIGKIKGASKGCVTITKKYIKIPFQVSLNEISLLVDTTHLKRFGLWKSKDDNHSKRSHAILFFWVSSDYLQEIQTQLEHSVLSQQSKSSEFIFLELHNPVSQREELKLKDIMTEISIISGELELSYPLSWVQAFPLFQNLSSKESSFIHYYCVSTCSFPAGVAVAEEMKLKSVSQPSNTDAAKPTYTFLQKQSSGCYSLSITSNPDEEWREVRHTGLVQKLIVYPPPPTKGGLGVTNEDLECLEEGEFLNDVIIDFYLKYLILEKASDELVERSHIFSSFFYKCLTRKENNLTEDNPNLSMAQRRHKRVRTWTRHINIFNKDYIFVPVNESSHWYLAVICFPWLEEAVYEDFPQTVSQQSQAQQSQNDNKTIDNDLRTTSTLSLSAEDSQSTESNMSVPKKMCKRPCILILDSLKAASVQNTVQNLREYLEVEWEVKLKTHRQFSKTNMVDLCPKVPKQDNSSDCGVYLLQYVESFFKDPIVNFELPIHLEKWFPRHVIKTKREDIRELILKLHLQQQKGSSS

[17] = SAR analysis of small molecule activators of Apaf-1 using a LZ-Caspase-9/Caspase-3 Fluorescent Selectivity assay - Set 2.; type: functional; settings: read-out: EC50_Mean
[18] = target: T6, Apoptotic protease-activating factor 1 (Homo sapiens, UniProt O14727); experiment: SAR analysis of small molecule Activators of Apaf-1 in a Fluorescent assay - set 2.; type: functional; settings: read-out: EC50_Mean
T6 sequence (O14727 whole entry): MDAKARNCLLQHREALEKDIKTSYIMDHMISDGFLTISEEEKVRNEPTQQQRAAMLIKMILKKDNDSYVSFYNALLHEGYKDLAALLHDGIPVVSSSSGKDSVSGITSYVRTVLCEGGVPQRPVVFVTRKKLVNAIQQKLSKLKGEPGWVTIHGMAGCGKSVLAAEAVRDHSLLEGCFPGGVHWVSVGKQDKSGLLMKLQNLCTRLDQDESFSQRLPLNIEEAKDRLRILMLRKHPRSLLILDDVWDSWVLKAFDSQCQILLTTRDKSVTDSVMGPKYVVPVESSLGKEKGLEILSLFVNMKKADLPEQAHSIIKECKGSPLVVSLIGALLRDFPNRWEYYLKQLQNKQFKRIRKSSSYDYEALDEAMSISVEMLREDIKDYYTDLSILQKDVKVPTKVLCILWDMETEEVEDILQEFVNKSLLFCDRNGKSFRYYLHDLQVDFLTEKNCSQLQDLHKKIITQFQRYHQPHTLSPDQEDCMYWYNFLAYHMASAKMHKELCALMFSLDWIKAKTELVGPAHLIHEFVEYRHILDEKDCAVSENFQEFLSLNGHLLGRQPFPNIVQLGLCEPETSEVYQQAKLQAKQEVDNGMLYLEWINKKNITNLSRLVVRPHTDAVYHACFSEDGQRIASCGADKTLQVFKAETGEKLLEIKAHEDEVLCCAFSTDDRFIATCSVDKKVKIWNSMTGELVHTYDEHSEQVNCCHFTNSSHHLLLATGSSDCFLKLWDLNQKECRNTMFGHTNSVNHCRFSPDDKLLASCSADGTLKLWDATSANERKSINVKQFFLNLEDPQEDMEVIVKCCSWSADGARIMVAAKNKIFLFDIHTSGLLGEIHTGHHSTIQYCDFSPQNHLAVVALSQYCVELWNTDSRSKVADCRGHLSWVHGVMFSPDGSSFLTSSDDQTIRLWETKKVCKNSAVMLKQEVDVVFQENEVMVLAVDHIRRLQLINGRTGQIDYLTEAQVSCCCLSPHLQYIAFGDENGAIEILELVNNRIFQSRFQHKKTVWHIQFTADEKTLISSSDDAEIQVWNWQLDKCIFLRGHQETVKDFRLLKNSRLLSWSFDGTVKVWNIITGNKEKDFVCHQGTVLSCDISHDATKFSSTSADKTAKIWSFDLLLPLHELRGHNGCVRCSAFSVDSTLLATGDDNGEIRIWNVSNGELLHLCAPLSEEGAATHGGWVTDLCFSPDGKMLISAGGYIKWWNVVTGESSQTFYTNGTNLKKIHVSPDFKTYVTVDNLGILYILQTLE

72 kDa type IV collagenase, sequence (P08253 whole entry): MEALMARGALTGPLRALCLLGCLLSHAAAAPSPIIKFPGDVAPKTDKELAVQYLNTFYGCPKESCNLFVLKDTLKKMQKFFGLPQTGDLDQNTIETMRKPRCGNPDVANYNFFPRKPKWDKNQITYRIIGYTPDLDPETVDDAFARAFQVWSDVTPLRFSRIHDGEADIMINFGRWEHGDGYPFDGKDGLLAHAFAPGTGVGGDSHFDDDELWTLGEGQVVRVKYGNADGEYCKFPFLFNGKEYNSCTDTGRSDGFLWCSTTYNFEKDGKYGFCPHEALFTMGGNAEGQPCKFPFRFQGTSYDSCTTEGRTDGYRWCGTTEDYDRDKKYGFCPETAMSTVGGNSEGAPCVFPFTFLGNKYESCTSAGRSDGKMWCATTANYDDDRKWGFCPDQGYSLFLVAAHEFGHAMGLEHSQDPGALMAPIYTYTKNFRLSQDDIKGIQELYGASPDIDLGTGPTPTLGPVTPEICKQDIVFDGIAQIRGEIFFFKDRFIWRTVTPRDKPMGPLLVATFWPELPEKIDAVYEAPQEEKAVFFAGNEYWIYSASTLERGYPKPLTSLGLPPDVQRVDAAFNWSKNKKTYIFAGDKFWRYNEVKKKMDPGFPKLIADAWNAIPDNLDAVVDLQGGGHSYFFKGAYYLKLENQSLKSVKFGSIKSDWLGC
Melanin-concentrating hormone receptor 1, sequence (Q99705 whole entry): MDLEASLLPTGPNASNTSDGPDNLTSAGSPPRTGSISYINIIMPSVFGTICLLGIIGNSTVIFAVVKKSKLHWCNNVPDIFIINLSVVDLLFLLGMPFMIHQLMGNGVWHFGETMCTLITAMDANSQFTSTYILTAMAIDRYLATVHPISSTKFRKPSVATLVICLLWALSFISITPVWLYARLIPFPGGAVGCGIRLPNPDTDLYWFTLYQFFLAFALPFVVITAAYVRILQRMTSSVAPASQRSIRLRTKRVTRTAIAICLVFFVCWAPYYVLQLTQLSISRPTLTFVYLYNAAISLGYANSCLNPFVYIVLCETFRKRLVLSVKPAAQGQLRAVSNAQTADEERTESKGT
26S proteasome non-ATPase regulatory subunit 14, sequence (O00487 whole entry): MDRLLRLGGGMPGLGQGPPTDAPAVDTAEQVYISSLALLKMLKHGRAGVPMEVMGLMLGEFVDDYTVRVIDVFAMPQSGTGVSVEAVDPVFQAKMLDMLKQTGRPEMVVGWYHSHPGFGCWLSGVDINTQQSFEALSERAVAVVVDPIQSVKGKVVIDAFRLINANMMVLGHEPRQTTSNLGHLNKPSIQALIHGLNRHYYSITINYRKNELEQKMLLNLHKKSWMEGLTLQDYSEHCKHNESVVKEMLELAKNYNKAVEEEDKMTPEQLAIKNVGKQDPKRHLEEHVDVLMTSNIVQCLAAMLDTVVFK
Melanocortin receptor 4, sequence (P32245 whole entry): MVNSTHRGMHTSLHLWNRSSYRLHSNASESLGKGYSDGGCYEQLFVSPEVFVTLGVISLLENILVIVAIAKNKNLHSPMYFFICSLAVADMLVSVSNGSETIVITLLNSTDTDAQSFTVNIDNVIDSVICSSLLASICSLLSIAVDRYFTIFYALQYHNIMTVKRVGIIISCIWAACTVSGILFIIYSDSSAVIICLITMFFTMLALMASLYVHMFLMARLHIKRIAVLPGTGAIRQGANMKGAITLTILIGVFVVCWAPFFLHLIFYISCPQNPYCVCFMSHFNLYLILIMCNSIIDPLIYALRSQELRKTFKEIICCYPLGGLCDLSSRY

CC(=O)Oc1ccc2nc(-c3ccc(Br)o3)oc(=O)c2c1
IC50 [1]: > 64.6 µM (inactive)
IC50 (Melanocortin receptor 4): > 64.6 µM (inactive)

O=[N+]([O-])c1ccc(N/N=C/c2sc(N3CCOCC3)nc2-c2ccccc2)c(S(=O)(=O)Nc2ccccc2Cl)c1
IC50 (Prothrombin): 0.564 µM (active)
IC50 [2]: > 100 µM (inactive)
IC50 [3]: 0.658 µM (active)

COc1cc(NS(=O)(=O)c2ccccc2)c2ncccc2c1
IC50 (HEK293 [4]): 70.7 µM (inactive)
IC50 (HEK293 [5]): 59.5 µM (inactive)
IC50 (Jurkat): 1.32 µM (active)

O=C(c1ccc([N+](=O)[O-])o1)N1CCN(c2nc3c(F)cc(F)cc3s2)CC1
EC50 [6]: 22.4 µM (active)
EC50 [7]: 8.9 µM (active)
EC50 [8]: 0.39 µM (active)
EC50 [9]: 1.93 µM (active)
EC50 [10]: 0.466 µM (active)

Cc1ccc(N2CCN(C(=O)c3ccc(Cl)cc3)CC2)nc1
AC50 (Candida albicans [11]): 0.413 µM (active)
AC50 (Candida albicans [12]): 25.4 µM (active)

COC(=O)c1ccccc1Cn1ncc(Cl)c(Oc2ccc(OC)cc2)c1=O
IC50 [13]: 1.16 µM (active)

CN(C(=O)c1cccc(Br)c1)c1nc2ccccc2s1
IC50 [14]: > 99 µM (inactive)
IC50 (Caspase-3): > 99 µM (inactive)
IC50 [15]: > 99 µM (inactive)
IC50 [16]: > 99 µM (inactive)

COc1ccc(OC)c(C2=NOC(C(=O)O)C2)c1 (configuration not stated)
EC50 [17]: > 100 µM (inactive)
EC50 [18]: > 100 µM (inactive)

Reference: ChEMBL document CHEMBL1201862, “PubChem BioAssay data set” (2004)
